From patent US9988371B2, “Benzimidazole analogues and related methods” (The Arizona Board of Regents, on Behalf of the University …, priority 2014, dated 2018)

How the values were obtained:
pMAPK = pMAPK immunoblot in Nthy-ori-3-1 cells; format: cell-based, human; conditions: Nthy-ory-3-1, non-transformed with oncogenic RET
Experimental: FIG. 3: Photographs of blots showing inhibition of RET protein endogenously expressed in TT cells (human MTC cell line expressing RET/C634W) by indicated concentrations of Pz-1 or vehicle (NT: not treated) and reduced effects in thyroid non-transformed Nthy-ori-3-1 cells. Serum-starved human TT and thyroid non-transformed Nthy-ori-3-1 cell lines were treated for 2 hr with indicated concentrations of Pz-1. 50 μg of total cell lysates were subjected to immunoblotting with anti-phospho-Y1062 (αp1062) and anti-phospho-905 (αpY905) RET antibodies, anti-phospho-MAPK (αpMAPK, T302/Y304), and anti-phospho-SHC (αpSHC, Y317) antibodies. The blots were normalized using anti-RET (αRET) and anti-SHC (αSHC).
The inhibition of RET auto-phosphorylation by Pz-1 was measured in several different cell lines including NIH3T3 fibroblasts expressing RET/C634Y or RET/M918T, TT expressing RET/C634W (MTC), Nthy-ory-3-1 (thyroid, non-transformed with RET; negative control), HEK293/RET/PTC1 (CCDC6-RET that can be found in PTC & lung cancer), HEK293/RET-KIF5B (that can be found in lung cancer), HEK293/RET/PTC3 (NCOA4-RET, that can be found in PTC & lung cancer), and HEK293 transfected with RET/C634R-V804M (FIGS. 1-3). […]
Protein lysates were prepared according to standard procedures. […] Immune complexes were detected with the enhanced chemiluminescence kit (Amersham Pharmacia Biotech, Little Chalfort, UK). […]

VEGFR2 = VEGFR2 (Homo sapiens, UniProt P35968); test: VEGFR2 biochemical assay; conditions: exact potency beyond measurable limit
Experimental: Suitable screening assays for RET and VEGFR2 small molecule kinase inhibitors (from a kinase-directed fragment (KDF) library) were established. The RET kinase assay utilizes an EZ Reader Electrophoresis Mobility Chip Instrument (Caliper Life Science). In the assay, 2 nM recombinant RET enzyme (Invitrogen) is pre-incubated with a small molecule inhibitor or control buffer for 30 min to allow the Type-II kinase inhibitor to trap the DFG-out conformation to which the inhibitors bind. This class of inhibitors is indirectly competitive with ATP, and slow binding kinetics (low kd) allow the inhibitors to appear non-competitive and pseudo-irreversible in nature. Because of the non-competitive nature of these inhibitors, a more biologically relevant concentration of ATP substrate (200 μM) was incorporated in this assay. After 30 min of pre-incubation, a substrate mix containing […], 20 mM MgCl2 and 1.5 μM fluorescently labeled RET substrate peptide (Caliper LS, peptide 22; Perkin Elmer, USA) was added. The conversion level of the RET substrate peptide was then determined utilizing the EZ Reader instrument. Similarly, VEGFR2 and RET/V804M kinase assays have also been established using the same peptide substrate.
The VEGFR-2 assay was identical to the RET assay except that 1-2 nM recombinant VEGFR-2 was used instead of RET.

Sequence of VEGFR2 (P35968 834-1162 limits assumed): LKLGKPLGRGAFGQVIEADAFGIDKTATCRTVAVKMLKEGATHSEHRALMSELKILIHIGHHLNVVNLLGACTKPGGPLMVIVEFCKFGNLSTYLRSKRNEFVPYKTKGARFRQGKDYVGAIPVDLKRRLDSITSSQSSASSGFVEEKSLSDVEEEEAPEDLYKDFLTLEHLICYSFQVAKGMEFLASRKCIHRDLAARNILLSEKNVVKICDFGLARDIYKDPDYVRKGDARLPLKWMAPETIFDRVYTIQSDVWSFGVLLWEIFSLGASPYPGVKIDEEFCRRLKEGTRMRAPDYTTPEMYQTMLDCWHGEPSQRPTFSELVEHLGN

SMILES: Cn1cc(-c2ccc3c(c2)ncn3-c2ccc(CC(=O)Nc3cc(C(C)(C)C)on3)cc2)cn1 [Pz-1, N-(5-(tert-butyl)isoxazol-3-yl)-2-(4-(5-(1-methyl-1H-pyrazol-4-yl)-1H-benzo[d]imidazol-1-yl)phenyl)acetamide]
- concentration at which pMAPK was inhibited (pMAPK): 100 nM
- IC50 (VEGFR2): < 1 nM
